Data published in patent US20090298691A1, “METHODS AND COMPOSITIONS FOR CONTROL OF AQUATIC WEEDS USING HERBICIDAL COMBINATIONS WITH FLURIDONE” (priority 2008, published 2009).

Assays:
[1] = tested on: panicgrass (Egyptian panicgrass, Kissimmee 'Knotgrass'); test: Example 7: greenhouse mesocosm selectivity trial, 60-day exposure, aboveground shoot biomass; type: in vivo, Paspalidium geminatum; settings: total parts per billion, non-linear regression
Description: (§1) Five different native aquatic plants were acquired from a Florida supplier (Aquatic Plants of Florida, Sarasota, Fla.). These species were jointed spikerush (Eleocharis interstincta), spatterdock (Nuphar advena), soft-stem bulrush (Scirpus validus), and maidencane (Panicum hemitomon), and tapegrass (Vallisneria americana). The final native species in the trial—Egyptian panicgrass or Kissimmee ‘Knotgrass’ (Paspalidium geminatum)—and fluridone-resistant hydrilla were collected from West Lake Tohopekaliga (Osceola County, FL). Transplanted tissue for each native species included both young fresh shoot growth and a portion of root stock/rhizome. Hydrilla was planted as 30 cm sections of fresh apical shoot growth. All plants were transplanted into commercial retail topsoil amended with slow-release granular 14-14-14 fertilizer at rate of 2.5 g fertilizer per kg soil. Spatterdock rhizomes were transplanted into 11.4L plastic garden pots, while all other species were transplanted into 1.9-L pots. Soil in each pot was capped with a layer of sand. […]
(§2) Three weeks after transplanting, herbicide stock solutions were used to apply either fluridone or penoxsulam alone or in combination. […] Four replicate pots of each species were harvested at time of treatment to quantify pre-treatment aboveground biomass. […]

[2] = tested on: target plant; settings: Sonar A.S. label; cited from earlier work
[3] = tested on: tapegrass; test: Example 7: greenhouse mesocosm selectivity trial, 60-day exposure, aboveground shoot biomass; type: in vivo, Vallisneria americana; settings: total parts per billion, non-linear regression
Description: as §1, §2

[4] = tested on: Lake Okahumpka hydrilla (fluridone resistant biotype); test: Example 1: hydrilla in 14 L cylinders, 25 days of exposure, total stem length and fresh weight; type: in vivo, Hydrilla verticillata; settings: 12 ppb (combination 6 ppb each)
Description: (§3) Apical sections of hydrilla were collected from Rainbow River and Lake Okahumpka, Fla. Hydrilla in Lake Okahumpka is known to have developed increased tolerance to fluridone (FRH). The biotype from Rainbow River has never been exposed to fluridone and is presumably fluridone susceptible. Apical sections were planted in potting soil amended with Osmocote fertilizer in small pots (13.5 cm length×3.75 cm diameter). A 2.54 cm sand layer was placed over the top of the potting soil. Pots containing each biotype of hydrilla were placed into 14 L acrylic cylinders and allowed to establish slight growth prior to treatment. Cylinders were then treated with penoxsulam (P) or fluridone (F) at 12 ppb, and fluridone+penoxsulam (1:1 ratio) at 6 ppb (3 ppb each) and 12 ppb (6 ppb each). All treatments were replicated 4 times. After 25 days of exposure, plants were harvested and total stem length and fresh weights were measured.

[5] = tested on: spatterdock; test: Example 7: greenhouse mesocosm selectivity trial, 60-day exposure, aboveground shoot biomass; type: in vivo, Nuphar advena; settings: total parts per billion, non-linear regression
Description: as §1, §2

[6] = tested on: fluridone susceptible hydrilla biotype; test: Example 3: hydrilla in 14 L cylinders, 56 days exposure, dry weights; type: in vivo, Hydrilla verticillata; settings: 3 ppb
Description: (§4) Hydrilla was collected from two sources in Florida representing a fluridone resistant biotype (Lake Cypress) and a fluridone susceptible biotype. Apical sections containing a single meristem were planted in small pots (13.5 cm length×3.75 cm diameter) containing potting soil and amended with Osmocote fertilizer. Each biotype were placed into 14 L cylinders and allowed to establish growth prior to treatment. Treatments were replicated three times and included: controls, penoxsulam or fluridone at 3 and 6 ppb; combinations of fluridone+penoxsulam (1:1 ratio) at 6 ppb (3 ppb of each). Plants were exposed for 56 days and then harvested to determine dry weights. At 14 days after treatment (DAT) net photosynthesis from exposed plant tissue was measured.

[7] = tested on: fluridone resistant hydrilla biotype (Lake Cypress); test: as above; type: in vivo, Hydrilla verticillata; settings: 3 ppb
Description: as §4

[8] = tested on: Hydrilla (FR), fluridone-resistant hydrilla; test: Example 7: greenhouse mesocosm selectivity trial, 60-day exposure, aboveground shoot biomass; type: in vivo, Hydrilla verticillata; settings: total parts per billion, non-linear regression
Description: as §1, §2

[9] = tested on: jointed spikerush; test: as above; type: in vivo, Eleocharis interstincta; settings: total parts per billion, non-linear regression
Description: as §1, §2

[10] = tested on: maidencane; test: as above; type: in vivo, Panicum hemitomon; settings: total parts per billion, non-linear regression
Description: as §1, §2

[11] = tested on: Lake Okahumpka hydrilla (fluridone resistant biotype); test: Example 2: hydrilla in 14 L cylinders, c.a. 30 days exposure, plant weights; type: in vivo, Hydrilla verticillata; settings: for biomass reduction: 6 ppb
Description: (§5) Hydrilla was collected from three sources in Florida; two representing fluridone resistant biotypes (Lake Okahumpka and Lake Cypress) and one fluridone susceptible biotypes (CAIP). Apical sections containing a single meristem were planted in small pots (13.5 cm length×3.75 cm diameter) containing potting soil and amended with Osmocote fertilizer. Each biotype were placed into 14 L cylinders and allowed to establish growth for 6-days prior to treatment. Treatments were replicated three times and included: controls, penoxsulam 6 and 12 ppb; fluridone 6 and 12 ppb; combinations of fluridone+penoxsulam (1:1 ratio) at 12 ppb (6 ppb each). Plants were exposed for c.a. 30 days and then harvested to determine plant weights.

[12] = tested on: Lake Cypress hydrilla (fluridone resistant biotype); test: as above; type: in vivo, Hydrilla verticillata; settings: for biomass reduction: 6 ppb
Description: as §5

[13] = tested on: CAIP hydrilla (fluridone susceptible biotype); test: as above; type: in vivo, Hydrilla verticillata; settings: 6 ppb
Description: as §5

[14] = tested on: soft-stem bulrush; test: Example 7: greenhouse mesocosm selectivity trial, 60-day exposure, aboveground shoot biomass; type: in vivo, Scirpus validus; settings: total parts per billion, non-linear regression
Description: as §1, §2

[15] = tested on: hydrilla; settings: literature; cited from earlier work
[16] = tested on: hydrilla; test: Contact time of penoxsulam alone under operational field use; type: in vivo, Hydrilla verticillata
[17] = tested on: Rainbow River hydrilla (fluridone susceptible); test: Example 1: hydrilla in 14 L cylinders, 25 days of exposure, total stem length and fresh weight; type: in vivo; settings: Hydrilla verticillata, 600 h, 12 ppb (combination 6 ppb each), read-out: stem length inhibited compared to control plants
Description: as §3

[18] = tested on: Eurasian watermilfoil; test: Example 5: Eurasian watermilfoil in 12 L tanks, 40 day exposure, root and shoot dry weights; type: in vivo; settings: 75 ppb; 40 days
Description: Apical sections (12 to 15 cm in length) of Eurasian watermilfoil (EWM) were taken from Sweetwater Lake, Ind. and from culture and planted into small pots (13.5 cm length×3.75 cm diameter) containing Wallace Farm® topsoil amended with 14-14-14 slow release Osmocote® fertilizer (˜2.5 g Osmocote/kg soil). Approximately 5 to 7 cm of the apical section extended above the sediment at planting, and a sand cap was placed over the potting soil (˜2 cm deep). Plants were then transferred to a 12 L acrylic tanks filled with well water. Plants were allowed to grow for 7 days before the following treatment was initiated in triple replicate:
Plants were harvested at 40 days. At harvest, plants were rinsed free of algae, roots and shoots were separated, and placed in paper sacks in a drying oven for 4 days at 70° C. temperature, and dry weights were determined (FIG. 6).

Compound | Calculated EC50 on shoot biomass [1] [ppb] | Calculated EC50 on shoot biomass [3] [ppb] | Calculated EC50 on shoot biomass [5] [ppb] | reduction in biomass compared to controls [6] [%] | reduction in biomass compared to controls [7] | Calculated EC50 on shoot biomass [8] [ppb] | Calculated EC50 on shoot biomass [9] [ppb] | Calculated EC50 on shoot biomass [10] [ppb] | biomass reduction [11] | biomass reduction [12] | biomass reduction [13] [%] | Calculated EC50 on shoot biomass [14] [ppb] | also measured
1-methyl-3-phenyl-5-3-(trifluoromethyl)phenyl-4(1H)-pyridinone [Fluridone] | 14.4 | 4.4 | 2.5 | ~50 | no effect | 10.1 | 28.3 | 4.4 | minimal affect | minimal affect | 60 | 5.3 | minimum time maintained in contact with a target plant [2]: ≥ 45 days; effect on fluridone tolerant biotype (stem length, biomass), in words [4]: little effect; stem length inhibited compared to control plants [4]: ~10%; effect on biomass, in words ([11]; up to 12 ppb): generally not affected; effect on biomass, in words ([12]; up to 12 ppb): generally not affected
O=C(O)C1C2CCC(O2)C1C(=O)O (centres unmarked) [Endothall, 7-oxabicyclo[2.2.1]heptane-2,3-dicarboxylic acid] | – | – | – | – | – | – | – | – | – | – | – | – | contact with hydrilla to achieve effective control [15]: less than 72 hours
COc1cnc(OC)n2nc(NS(=O)(=O)c3c(OCC(F)F)cccc3C(F)(F)F)nc12 [Penoxsulam] | 267.6 | 9.6 | 12.5 | ~40 | ~40% | 4.4 | 12.8 | 52.5 | 53% | 57% | 63 | 8.9 | contact time to achieve full hydrilla control [16]: greater than 4 months; inhibition at 0.012 ppm ([4]; Hydrilla verticillata, 600 h, read-out: stem length inhibited compared to control plants): ~40%; inhibition at 0.012 ppm [17]: 50 to 60%
O=C(O)COc1nc(Cl)c(Cl)cc1Cl [Triclopyr, 3,5,6-trichloro-2-pyridyloxyacetic acid] | – | – | – | – | – | – | – | – | – | – | – | – | above ground biomass reduction [18]: 96%; below ground biomass reduction [18]: 74%
